Laboratory results as given in patent US20260297060A1, “COMPOUNDS FOR THE DEGRADATION OF MUTANT BRAF” (C4 THERAPEUTICS, INC., priority 2023, published 2026).
Like-named read-outs stand apart in the source and are kept apart here.

Tests used:
[1] = system: A375 human melanoma xenografts; assay: Example 9 efficacy study Part II in A375 human melanoma xenografts (tumor volume, T/C, TGI); format: in vivo, BALB/c nude mice; conditions: 10 mg/kg, p.o., BID × 14 days; for Tumor Size on PG-D14: Mean ± SEM; for TGI (Tumor Growth Inhibition): PG-D14; for T/C: PG-D14, treated/control average tumor volume
Experimental: (§1) For efficacy study Part II, agents were tested in the A375 human melanoma xenografts model. Compound 133, Compound 144 and Compound 198 were administered to BALB/c nude mice bearing A375 xenografts from day 0 and dosed twice a day (BID) for 14 days. Compound 133, Compound 144 and Compound 198 were dosed at 10 mg/kg via p.o..
The A375 tumor cells were maintained in vitro in DMEM medium supplemented with […] and 1% Penicillin-Streptomycin at 37° C. in an atmosphere of 5% CO2 in air. The tumor cells were routinely subcultured twice weekly. The cells growing in an exponential growth phase were harvested and counted for tumor inoculation.
Each mouse was inoculated subcutaneously at the right flank with A375 cells (5×10^6) in 0.2 mL of PBS supplemented with Matrigel (PBS: Matrigel=1:1) for tumor development. Animals were grouped for the treatment when the average tumor volume reached 243 mm^3 for efficacy study part I and 413 mm^3 for the PK and PD study part I on day 15, and 271 mm^3 for efficacy part II and 443 mm^3 for the PK and PD part II on day 18, and 463 mm^3 for the PK and PD study part III on day 21. The test articles administration and the animal numbers in each group are shown in the above experimental tables.
Prior to the onset of drug treatment, mice were measured for tumor size in two dimensions using a caliper, and the tumor volume (mm^3) was calculated using formula V=0.5 a×b^2 where a and b are the long and short diameters of the tumor in mm, respectively. Mice were randomized into different treatment groups based on the tumor volume.
The major endpoint was to see if the tumor growth could be delayed or mice could be cured. The tumor size was then used for calculations of T/C value. The T/C value (in percent) is an indication of antitumor effectiveness; T and C are the mean volumes of the treated and control groups, respectively on specified day.
TGI was calculated for each group using the formula: TGI (%)=[1−(Ti−T0)/(Ci−C0)]×100; Ti is the average tumor volume of a treatment group on a given day, To is the average tumor volume of the treatment group on the day of treatment start, Ci is the average tumor volume of the vehicle control group on the same day with Ti, and C0 is the average tumor volume of the vehicle group on the day of treatment start.

[2] = Example 9 pharmacokinetics assay for efficacy study Part I and II (plasma, liver); format: in vivo, BALB/c nude mice; conditions: mouse, po, 10 mg/kg, p.o., BID × 14 days, 6 h following treatment, ± SEM
Experimental: For efficacy study Part I, agents were tested in the A375 human melanoma xenografts. Compound 218 and Compound 157 were administered to BALB/c nude mice bearing A375 xenografts from day 0 and dosed twice a day (BID) for 14 days. Compound 218 and Compound 157 were dosed at 10 mg/kg via p.o.. Dabrafenib was administered from day 1 daily (QD) for 14 days and dosed at 100 mg/kg via p.o..
as §1
The plasma samples were collected at predetermined time points for PK analysis. The mice were euthanized at predetermined time points post the treatment. The blood samples were collected into the 1.5 mL Eppendorf tubes containing 15 μL of 0.5 M EDTA-K2. And then the anticoagulant blood samples were centrifuged at 2,500 g at 4° C. for 15 minutes. The plasma samples were separated into 2 aliquots. The 1st was used for PK analysis, and the 2nd served as backup. The samples were stored at −80° C. before bioanalysis.
Liver samples were collected at predetermined time points for PK analysis. The left lobe of the liver was dissected out and split into 2 parts. The 1st part was used for PK analysis and the 2nd part served as the backup for the study. The samples were transferred into pre-labeled tubes and quickly froze in liquid nitrogen within 2 minutes after dissection. The samples were stored at −80° C. before bioanalysis.
The harvested plasma and liver samples were processed for pharmacokinetics analysis by LC-MS/MS with a concentration range of 1.00-1,000 ng/mL for Dabrafenib in plasma and liver homogenate, 10.0-10,000 ng/mL for Compound 218, Compound 157, Compound 133, Compound 144 and Compound 198 in plasma and liver homogenate.

[3] = liver, read-out: Mean Concentration in Liver
[4] = plasma, read-out: Mean Concentration in Plasma

| SMILES | Tumor Volume Trace Over Time ([1]; Day 0, Mean ± SEM) | Tumor Volume Trace Over Time ([1]; Day 4, Mean ± SEM) | Tumor Volume Trace Over Time ([1]; Day 7, Mean ± SEM) | Tumor Volume Trace Over Time ([1]; Day 11, Mean ± SEM) | Tumor Volume Trace Over Time ([1]; Day 14, Mean ± SEM) | Tumor Size on PG-D14 [1] | TGI (Tumor Growth Inhibition) [1] | T/C [1] | concentration at 6 h [2, 3] | concentration at 6 h [2, 4] |
| --- | --- | --- | --- | --- | --- | --- | --- | --- | --- | --- |
| CCN(C)S(=O)(=O)Nc1ccc(F)c(Oc2ccc3ncn(C4CC5(CCN(C6CC7(CCN(c8cc9c(cc8F)c(N8CCC(=O)NC8=O)nn9C)CC7)C6)CC5)C4)c(=O)c3c2)c1C#N (stereo not drawn) [Compound 198, 6-[2-cyano-3-[[ethyl(methyl)sulfamoyl]amino]-6-fluoro-phenoxy]-3-[7-[7-[3-(2,4-dioxohexahydropyrimidin-1-yl)-5-fluoro-1-methyl-indazol-6-yl]-7-azaspiro[3.5]nonan-2-yl]-7-azaspiro[3.5]nonan-2-yl]-4-oxo-quinazoline] | 271 mm^3 | 192 mm^3 | 93 mm^3 | 60 mm^3 | 58 mm^3 | 58 ± 13 mm^3 | 122.45% | 4.79% | 3320 ± 479 ng/g | 7640 ± 799 ng/mL |
| CO[C@@H]1CCN(S(=O)(=O)Nc2ccc(F)c(Oc3ccc4ncn([C@H]5COC6(CCN(C7CC8(C7)CN(c7cc9c(cc7F)c(N7CCC(=O)NC7=O)nn9C)C8)CC6)C5)c(=O)c4c3)c2C#N)C1 [Compound 144, (3R)-N-[2-cyano-3-[3-[(3R)-8-[2-[3-(2,4-dioxohexahydropyrimidin-1-yl)-5-fluoro-1-methyl-indazol-6-yl]-2-azaspiro[3.3]heptan-6-yl]-1-oxa-8-azaspiro[4.5]decan-3-yl]-4-oxo-quinazolin-6-yl]oxy-4-fluoro-phenyl]-3-methoxy-pyrrolidine-1-sulfonamide] | 271 mm^3 | 167 mm^3 | 79 mm^3 | 51 mm^3 | 28 mm^3 | 28 ± 5 mm^3 | 125.70% | 2.27% | 2470 ± 252 ng/g | 14700 ± 2220 ng/mL |
| Cn1nc(N2CCC(=O)NC2=O)c2cc(F)c(N3CC4(CC(N5CCC6(CC5)C[C@@H](n5cnc7ccc(Oc8c(F)ccc(NS(=O)(=O)N9CC[C@@H](F)C9)c8C#N)cc7c5=O)CO6)C4)C3)cc21 [Compound 133, (3R)-N-[2-cyano-3-[3-[(3R)-8-[2-[3-(2,4-dioxohexahydropyrimidin-1-yl)-5-fluoro-1-methyl-indazol-6-yl]-2-azaspiro[3.3]heptan-6-yl]-1-oxa-8-azaspiro[4.5]decan-3-yl]-4-oxo-quinazolin-6-yl]oxy-4-fluoro-phenyl]-3-fluoro-pyrrolidine-1-sulfonamide] | 271 mm^3 | 193 mm^3 | 99 mm^3 | 71 mm^3 | 32 mm^3 | 32 ± 7 mm^3 | 125.20% | 2.65% | 1910 ± 169 ng/g | 5070 ± 270 ng/mL |
